Reference: US7345091B2, “Carotenoid ether analogs or derivatives for the inhibition and amelioration of disease” (Cardax Pharmaceuticals, Inc., priority 2002, dated 2008)

Tests used:
[1] = test system: C3H/10T1/2 cells; assay: Assembly of Cx43 into plaques (immunofluorescent staining); assay type: cell-based, mouse; conditions: 1×10^-8 M in tetrahydrofuran, 4 days
Protocol: In this experiment expression and assembly of Cx43 into plaques was assessed by immunofluorescent staining. Procedures were essentially as described in Zhang (1992). Briefly, confluent cultures of C3H/10T1/2 cells were grown on Permanox plastic 4-chamber slides (Nalge Nunc International, Naperville, Ill.) and treated for 4 days with: (1) the disodium salt disuccinate astaxanthin derivative XVI (statistical mixture of stereoisomers) dissolved in a 1:2 EtOH/H2O formulation; (2) the retinoid TTNPB at 1×10^−8 M in tetrahydrofuran as a positive control; or (3) 1:2 EtOH/H2O as a solvent control. Cells were fixed with −20° C. methanol overnight, washed in buffer, blocked in 1% bovine serum albumin (Sigma, St, Louis, Mo.) in PBS, and incubated with the rabbit polyclonal anti-Cx43 antibody (Zymed, San Francisco, Calif.) as in (2) above and detected with Alexa568 conjugated anti-rabbit secondary (Molecular Probes, Eugene, Oreg.). Slides were illuminated with […] light and images were acquired at a wavelength of 600 nm using the Zeiss Axioscope light microscope and a Roper Scientific cooled CCD camera. […] In cultures treated with solvent as control, such immunoreactive plaques were infrequent and were smaller than those detected in cells treated with the statistical mixture of stereoisomers of the disodium salt disuccinate astaxanthin derivative XVI or with TTNPB as positive control. […]

[2] = test system: connexin 43 protein expression; assay: Induction of connexin 43 protein expression (Western blot, 96 hours); assay type: cell-based, mouse; conditions: 10^-8 M, 96-hour time point
Protocol: In brief, mouse embryonic fibroblast CH3/10T^1/2 cells were treated with the following formulations in a 4 mL cell culture system with media containing 2% calf serum: • 1. TTNPB [p-(E)-2-(5,6,7,8-tetrahydro-5,5,8,8-tetramethyl-2-napthyl) propenyl benzoic acid] 10^−8 M in acetone [positive control for connexin 43 upregulation (4 μL in 4 mL] • 2. Disodium salt disuccinate astaxanthin derivative XVI/H2O at 10^−5 M (40 μl in 4 mL) • 3. Disodium salt disuccinate astaxanthin derivative XVI/H2O at 10^−6 M (4 μl in 4 mL) • 4. Disodium salt disuccinate astaxanthin derivative XVI/H2O at 10^−7 M (1:10 dilution and 4 μl in 4 mL) • 5. Disodium salt disuccinate astaxanthin derivative XVI H2O/ethanol [EtOH] formulation at 10^-5 M (40 μl in 4 mL) • 6. Disodium salt disuccinate astaxanthin derivative XVI H2O/EtOH formulation at 10^−6 M (4 μl in 4 mL) • 7. Sterile H2O control (40 μl in 4 mL) • 8. Sterile H2O/EtOH control (20 μL EtOH, 20 μL H2O in 4 mL) • 9. Media control (4 mL)
Cells were harvested after 96 hours incubation with test compounds and control solutions. All media solutions were identical in color, however after treatment with the disodium salt disuccinate astaxanthin derivative XVI at both 10^−5 dilutions, the color subjectively changed to an orange-red color. Cells treated with TTNPB appeared striated with light microscopy, evidence of differentiation to myocytes, an expected result in this cell culture system. After harvest and pelleting of cells, tubes containing both 10^−5 disodium salt disuccinate astaxanthin derivative XVI solutions were bright red; both 10^−6 dilution tubes were a pink color. As documented previously for other colored carotenoids, this was subjective evidence for cellular uptake of the test compounds.
Cells were then lysed, and 50 μg of each protein was electrophoresed on a 10% polyacrylamide gel. The gel was then transferred to a nitrocellulose filter. Total protein was assayed with Coomassie blue staining (FIG. 29; lanes 6, 7, and 9 were smeared secondary to gel transfer, and were not included in the quantitative comparison [FIG. 31)]. […]

[3] = human, in vivo, po, 1.1 mg/kg; cited from earlier work
[4] = Excerpt: FIG. 27 and FIG. 28 depict the results of spectral analysis after flash photolysis of the formation of triplet and carotenoid cation radical states for non-esterified, free astaxanthin 2E and the diacid disuccinate astaxanthin derivative XV were obtained. Formation of the carotenoid cation radical is a measure of the potential biophysical behavior of the novel derivative as an antioxidant. If a derivative retains the antioxidant behavior of non-esterified, free astaxanthin, then all previously documented (i.e. literature precedent) therapeutic applications for astaxanthin can be reasonably assumed for the novel derivative, including at least singlet oxygen quenching, lipid peroxidation chain-breaking, and/or direct radical scavenging.
In this experiment, nitronaftalin (NN) was used as the photosensitizer. After irradiation, the excited sensitizer (NN*) forms a sensitizer triplet (^3NN). When ^3NN encounters a carotenoid, energy and electron transfer reactions with ^3NN take place. The resulting relatively stable ^3car and carotenoid cation radicals (car*^+) are detected by characteristic absorption bands. Non-polar solvents (e.g. hexane) favor the formation of ^3car, and more polar solvents (alcohols, water) favor the formation of the car.^+. The anion radical of the sensitizer (NN.^−) is not typically seen because of a low absorption coefficient.
The ^3car decays rather quickly. After 15 μs, half of the ^3car has disappeared, and after 50 μs, no ^3car is left.
The spectrum of asta 2E is nearly identical to that of astaCOOH XV. After 50 μs, the ^3car has disappeared. During this time frame, the car.^+ is stable. Negative and positive peaks in the absorption spectra for astaCOOH XV and asta 2E are superimposable.

[5] = test system: superoxide anion; assay: Superoxide anion scavenging by EPR (DEPMPO spin trap) in phorbol ester-stimulated isolated neutrophils; assay type: cell-based, human; conditions: Homo sapiens, Neutrophil, Solvent DMSO, 0.1 mM; read-out: Mean (% inhibition) of superoxide anion signal
Protocol: In an experiment, neutrophils were isolated on a Percoll gradient from whole blood from a human volunteer. The isolated neutrophils were then re-suspended in phosphate-buffered saline, and maximally stimulated with phorbol ester to induce the respiratory burst and production of superoxide anion. To the solution of activated human neutrophils, the disodium salt disuccinate astaxanthin derivative XVI was added at various concentrations, and the superoxide signal [as measured with electron paramagnetic resonance (EPR) spectroscopy] was subsequently measured. […] The disodium salt disuccinate astaxanthin derivative XVI tested at 100 μM scavenged 28% of the total signal. At 3 mM, almost no superoxide signal remained. […] In addition to reducing the superoxide anion signal important in ischemia-reperfusion injury, it is also likely that myocardial salvage can be achieved with the described carotenoid derivative, as superoxide anion plays a major role in tissue injury and death during prolonged myocardial ischemia. In a third experiment, neutrophils were again isolated on a Percoll gradient from whole blood from a second human volunteer. The isolated neutrophils were then re-suspended in phosphate-buffered saline, and maximally stimulated with phorbol ester to induce the respiratory burst and production of superoxide anion. […] Astaxanthin 2E was dissolved in HPLC grade dimethylsulfoxide (DMSO; Sigma-Aldrich, St. Louis, Mo.). The disodium disuccinate derivatives XVI of astaxanthin 2E were tested separately in […] formulations: statistical mixture of stereoisomers (as for astaxanthin, above, a 1:2:1 mixture of all-E; labeled as “mixture” in all tables and figures); 3S,3'S, and 3R,3'R (optical isomers or enantiomers); and meso (mixture of identical 3S,3'R and 3'S,3R; diastereomers of the enantiomeric pair). […] The disuccinate derivatives were first tested at the appropriate final concentrations in pure aqueous solution (deionized water) from stock solutions of 10 mM. Each of the four disuccinate derivatives were then tested from stock solutions prepared in a 1:2 mixture of ethanol (final concentration of EtOH in stock solution 331⁄3%; final concentration in isolated neutrophil assay 0.3%; HPLC grade ethanol, Sigma-Aldrich, St. Louis, Mo.) at 10 mM. […] Metaphore® Pharmaceuticals, Inc., St. Louis, Mo.) were also performed. Human polymorphonuclear leukocytes (PMNs) were isolated from freshly sampled venous blood of a single volunteer by Percoll density gradient centrifugation, which yielded PMNs with a purity of >95%. Each 10 mL of whole blood was mixed with 0.8 mL of 0.1 M EDTA and 25 mL of saline. The diluted blood was layered over 9 mL of Percoll at a specific density of 1.080 g/mL. After centrifugation at 400×g for 20 min at 20° C., the plasma, mononuclear cell, and Percoll layers were removed. Erythrocytes were lysed by addition of 18 mL of ice-cold water for 30 s, followed by 2 mL of 10× PIPES buffer (25 mM PIPES, 110 mM NaCl, and 5 mM KCl, titrated to pH 7.4 with NaOH). Cells were pelleted at 4° C., the supernatant was decanted, and the procedure was repeated. After the second hypotonic lysis, cells were washed twice with PAG buffer (PIPES buffer containing 0.003% human serum albumin and 0.1% glucose). Afterward, PMNs were counted by light microscopy on a hemocytometer. The final pellet was then suspended in PAG-CM buffer (PAG buffer with 1 mM CaCl2 and 1 mM MgCl2). All EPR measurements were performed using a Bruker ER 300 EPR spectrometer operating at X-band with a TM110 cavity. The microwave frequency was measured with a Model 575 microwave counter (EIP Microwave, Inc., San Jose, Calif.). To measure O^ -2 generation from phorbol-ester (PMA)-stimulated PMNs, EPR spin-trapping studies were performed using DEPMPO (Oxis, Portland, Oreg.) at 10 mM. 1×10^6 PMNs were stimulated with PMA (1 ng/mL) and loaded into capillary tubes for EPR measurements. […]

[6] = test system: C3H10T1/2 cell culture model; assay: Inhibition of MCA-induced neoplastic transformation; assay type: cell-based, mouse; conditions: for percent reduction of MCA-induced neoplastic transformation: 3×10^-6 M in THF
Protocol: Non-esterified, free astaxanthin 2E is generated in the mammalian gut after oral administration of esterified astaxanthin. Only free astaxanthin is found in mammalian plasma and solid organs. […] Inherent esterase activity of serum albumin, and the action of promiscuous esterases in serum and solid organs rapidly generates non-esterified, free astaxanthin after parenteral administration of the disodium disuccinate astaxanthin derivative (XVI). […] An experiment was performed to assess the ability of non-esterified, free astaxanthin (the in vivo final cleavage product of the disodium salt disuccinate astaxanthin derivative (XVI), tested as the all-trans mixture of stereoisomers 3S,3′S, meso, and 3R,3′R in a 1:2:1 ratio) to inhibit neoplastic transformation in the C3H10T1/2 cell culture model developed in the lab of the late Charles Heidelberger (Reznikoff, 1973).
This experiment was conducted according to protocols established previously (Bertram, 1991 and Pung, 1988). In brief, the 10T1/2 cells, derived from mouse embryonic fibroblasts, were seeded at a density of 10^3 cells/60 mm dish in Eagle's Basal Media (BME) (Atlanta Biologicals, Atlanta, Ga.), supplemented with 4% fetal calf serum (Atlanta Biologicals, Atlanta, Ga.) and 25 μg/mL gentamicin sulfate (Sigma, St. Louis, Mo.). Cells were treated 24 hours later with 5.0 μg/ml MCA (Sigma, St. Louis, Mo.) in acetone or with 0.5% acetone (final concentration) as a control. Media was changed 24 hours after MCA treatment. Cells were treated with astaxanthin in THF or with retinol acetate in acetone 7 days later, and re-treated every 7 days for 4 weeks. Other dishes were treated with the appropriate solvent controls. After 5 weeks from the start of the experiment, cells were fixed with methanol and stained with 10% Giemsa stain (Sigma, St. Louis, Mo.) and scored for type II and type III foci as per Reznikoff (1973).

[7] = read-out: antioxidant ED50 (protective level); cited from earlier work

| Compound | assembly of immunoreactive Cx43 into plaques [1] | induction of connexin 43 expression [2] | Cmax, plasma levels [3] [ng/mL] | stability of the carotenoid cation radical (car.+) [4] | time after which no 3car (carotenoid triplet) is left ([4]; acetonitrile, sensitizer NN) [μs] | inhibition at 100 µM [5] [%] | percent reduction of MCA-induced neoplastic transformation ([6]; 4-week treatment) | percent reduction of MCA-induced neoplastic transformation ([6]; 4-week treatment, listed as Non-esterified, free astaxanthin) [%] | numbers of MCA-induced transformed foci ([6]; 3×10^-6 M, 1×10^-6 M and 3×10^-7 M, 4-week treatment, vs MCA + THF control) | potency as inhibitor of transformation compared with previously tested carotenoids ([6]; comparison with data of Bertram, 1991 (1×10^-5 M)) | EC50 [7] [nM] |
| --- | --- | --- | --- | --- | --- | --- | --- | --- | --- | --- | --- |
| C/C(=C\c1ccc(C(=O)O)cc1)c1ccc2c(c1)C(C)(C)CCC2(C)C [TTNPB, p-(E)-2-(5,6,7,8-tetrahydro-5,5,8,8-tetramethyl-2-napthyl) propenyl benzoic acid, reference compound] | exhibited assembly of immunoreactive Cx43 into plaques | effective at inducing connexin 43 expression |  |  |  |  |  |  |  |  |  |
| CC1=C(/C=C/C(C)=C/C=C/C(C)=C/C=C/C=C(C)/C=C/C=C(C)/C=C/C2=C(C)C(=O)C(O)CC2(C)C)C(C)(C)CC(O)C1=O (centres unmarked) [Astaxanthin 2E, Astaxanthin] |  |  | 1300 | stable | 50 | 28 | complete suppression of the transformed phenotype | 100 | concentration-dependent decrease | far more potent inhibitor of transformation than either β-carotene or canthaxanthin | 200 |
